Measurements taken from ChEMBL document CHEMBL3817755, “Design, synthesis and biological evaluation of indazolepyrimidine based derivatives as anticancer agents with anti-angiogenic and antiproliferative activities” (Medchemcomm, 2016).
pIC50: −log10 of the molar value.

Columns and labels:
ACHN = experiment: Growth inhibition of human ACHN cells at 10 uM after 48 hrs by SRB assay; format: functional; settings: read-out: GI
[1] = Growth inhibition of human UO31 cells at 10 uM after 48 hrs by SRB assay; format: functional; settings: UO-31, 48 h, read-out: GI
[2] = Growth inhibition of human RPMI8226 cells at 10 uM after 48 hrs by SRB assay; format: functional; settings: RPMI-8226, 48 h, read-out: GI
[3] = Growth inhibition of human UACC257 cells at 10 uM after 48 hrs by SRB assay; format: functional; settings: UACC-257, 48 h, read-out: GI
[4] = Growth inhibition of human OVCAR8 cells at 10 uM after 48 hrs by SRB assay; format: functional; settings: OVCAR-8, 48 h, read-out: GI
[5] = Growth inhibition of human SF268 cells at 10 uM after 48 hrs by SRB assay; format: functional; settings: SF-268, 48 h, read-out: GI
[6] = Growth inhibition of human SW620 cells at 10 uM after 48 hrs by SRB assay; format: functional; settings: SW-620, 48 h, read-out: GI
[7] = Growth inhibition of human SNB75 cells at 10 uM after 48 hrs by SRB assay; format: functional; settings: SNB-75, 48 h, read-out: GI
[8] = Growth inhibition of human SF539 cells at 10 uM after 48 hrs by SRB assay; format: functional; settings: SF-539, 48 h, read-out: GI
[9] = Growth inhibition of human MOLT4 cells at 10 uM after 48 hrs by SRB assay; format: functional; settings: MOLT-4, 48 h, read-out: GI
[10] = Growth inhibition of human HCT15 cells at 10 uM after 48 hrs by SRB assay; format: functional; settings: HCT-15, 48 h, read-out: GI
A498 [11] = experiment: Growth inhibition of human A498 cells at 10 uM after 48 hrs by SRB assay; format: functional; settings: A498, 48 h, read-out: GI
NCI-H23 = experiment: Growth inhibition of human NCI-H23 cells at 10 uM after 48 hrs by SRB assay; format: functional; settings: NCI-H23, 48 h, read-out: GI
[12] = Growth inhibition of human HOP62 cells at 10 uM after 48 hrs by SRB assay; format: functional; settings: HOP-62, 48 h, read-out: GI
SK-MEL-28 = experiment: Growth inhibition of human SK-MEL-28 cells at 10 uM after 48 hrs by SRB assay; format: functional; settings: SK-MEL-28, 48 h, read-out: GI
NCI-H226 [13] = experiment: Growth inhibition of human NCI-H226 cells at 10 uM after 48 hrs by SRB assay; format: functional; settings: NCI-H226, 48 h, read-out: GI
[14] = Growth inhibition of human HCC2998 cells at 10 uM after 48 hrs by SRB assay; format: functional; settings: HCC 2998, 48 h, read-out: GI
[15] = Growth inhibition of human HOP62 cells after 48 hrs by SRB assay; format: functional; settings: HOP-62, 48 h
SK-MEL-2 = experiment: Growth inhibition of human SK-MEL-2 cells after 48 hrs by SRB assay; format: functional; settings: SK-MEL-2, 48 h
U-251 = experiment: Growth inhibition of human U251 cells after 48 hrs by SRB assay; format: functional; settings: U-251, 48 h
[16] = Growth inhibition of human Hs 578T cells after 48 hrs by SRB assay; format: functional
NCI-H226 [17] = experiment: Growth inhibition of human NCI-H226 cells after 48 hrs by SRB assay; format: functional; settings: NCI-H226, 48 h
A498 [18] = experiment: Growth inhibition of human A498 cells after 48 hrs by SRB assay; format: functional; settings: A498, 48 h
T47D = experiment: Growth inhibition of human T47D cells after 48 hrs by SRB assay; format: functional
[19] = Growth inhibition of human HCT15 cells after 48 hrs by SRB assay; format: functional; settings: HCT-15, 48 h
SK-MEL-5 = experiment: Growth inhibition of human SK-MEL-5 cells after 48 hrs by SRB assay; format: functional; settings: SK-MEL-5, 48 h
[20] = Growth inhibition of human HOP92 cells after 48 hrs by SRB assay; format: functional; settings: HOP-92, 48 h
[21] = Growth inhibition of human PC3 cells after 48 hrs by SRB assay; format: functional; settings: PC-3, 48 h
[22] = Growth inhibition of human SF295 cells after 48 hrs by SRB assay; format: functional; settings: SF-295, 48 h
MCF7 = experiment: Growth inhibition of human MCF7 cells after 48 hrs by SRB assay; format: functional; settings: MCF7, 48 h
M14 = experiment: Growth inhibition of human M14 cells after 48 hrs by SRB assay; format: functional; settings: M14, 48 h
[23] = target: Vascular endothelial growth factor receptor 2 (Homo sapiens, UniProt P35968); experiment: Inhibition of VEGFR-2 (unknown origin) after 40 mins by Kinase-GloPlus luminescence assay
Chain of Vascular endothelial growth factor receptor 2 (P35968 whole entry): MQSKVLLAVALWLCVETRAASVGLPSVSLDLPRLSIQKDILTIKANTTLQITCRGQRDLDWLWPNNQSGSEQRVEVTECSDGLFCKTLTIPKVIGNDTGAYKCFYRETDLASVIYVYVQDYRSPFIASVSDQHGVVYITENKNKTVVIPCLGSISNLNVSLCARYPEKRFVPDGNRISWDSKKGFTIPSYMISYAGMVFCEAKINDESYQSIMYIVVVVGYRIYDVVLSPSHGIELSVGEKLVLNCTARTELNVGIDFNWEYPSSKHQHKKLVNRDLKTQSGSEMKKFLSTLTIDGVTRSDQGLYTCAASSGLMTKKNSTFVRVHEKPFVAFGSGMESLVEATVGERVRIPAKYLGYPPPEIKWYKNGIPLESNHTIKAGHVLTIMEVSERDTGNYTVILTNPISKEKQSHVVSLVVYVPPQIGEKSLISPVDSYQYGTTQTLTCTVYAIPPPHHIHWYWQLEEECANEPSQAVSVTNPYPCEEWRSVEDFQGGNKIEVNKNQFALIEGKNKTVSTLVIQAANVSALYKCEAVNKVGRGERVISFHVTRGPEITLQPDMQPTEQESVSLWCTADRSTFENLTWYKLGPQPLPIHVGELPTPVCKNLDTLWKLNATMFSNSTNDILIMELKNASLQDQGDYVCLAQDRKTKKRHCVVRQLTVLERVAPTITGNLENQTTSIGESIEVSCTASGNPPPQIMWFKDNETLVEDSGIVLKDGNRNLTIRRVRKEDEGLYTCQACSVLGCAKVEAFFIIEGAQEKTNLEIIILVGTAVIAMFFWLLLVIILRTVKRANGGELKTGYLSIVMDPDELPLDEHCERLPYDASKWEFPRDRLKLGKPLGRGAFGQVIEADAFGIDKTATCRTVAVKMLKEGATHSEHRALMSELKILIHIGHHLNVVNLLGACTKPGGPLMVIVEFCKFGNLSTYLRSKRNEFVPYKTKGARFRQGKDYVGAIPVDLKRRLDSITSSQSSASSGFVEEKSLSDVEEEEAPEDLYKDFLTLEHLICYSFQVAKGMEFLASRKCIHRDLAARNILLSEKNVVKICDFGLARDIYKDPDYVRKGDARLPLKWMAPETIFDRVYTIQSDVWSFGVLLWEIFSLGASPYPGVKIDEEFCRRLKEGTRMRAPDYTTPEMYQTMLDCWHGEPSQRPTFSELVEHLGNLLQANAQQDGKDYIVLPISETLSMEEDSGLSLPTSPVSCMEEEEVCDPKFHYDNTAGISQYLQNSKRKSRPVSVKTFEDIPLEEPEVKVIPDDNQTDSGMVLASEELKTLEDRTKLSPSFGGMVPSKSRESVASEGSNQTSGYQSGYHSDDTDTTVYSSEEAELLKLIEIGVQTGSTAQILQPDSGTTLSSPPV

[24] = Growth inhibition of human BT549 cells after 48 hrs by SRB assay; format: functional; settings: BT-549, 48 h
[25] = Growth inhibition of human Caki1 cells after 48 hrs by SRB assay; format: functional; settings: CAKI-1, 48 h
[26] = Growth inhibition of human TK10 cells after 48 hrs by SRB assay; format: functional; settings: TK-10, 48 h
HT-29 = experiment: Growth inhibition of human HT-29 cells after 48 hrs by SRB assay; format: functional; settings: HT-29, 48 h
[27] = Growth inhibition of human HL-60(TB) cells after 48 hrs by SRB assay; format: functional; settings: HL-60, 48 h
[28] = Growth inhibition of human LOXIMVI cells after 48 hrs by SRB assay; format: functional; settings: LOX IMVI
[29] = read-out: LC50 (the source's name)

## Fc1ccc(Nc2nccc(Nc3ccc4[nH]ncc4c3)n2)cc1
ACHN
  inhibition of growth at 10 µM: 47%
[1]
  inhibition of growth at 10 µM: 61%
[2]
  inhibition of growth at 10 µM: 59%
[3]
  inhibition of growth at 10 µM: 26%
[4]
  inhibition of growth at 10 µM: 59%
[5]
  inhibition of growth at 10 µM: 29%
[6]
  inhibition of growth at 10 µM: 31%
[7]
  inhibition of growth at 10 µM: 15%
[8]
  inhibition of growth at 10 µM: 22%
[9]
  inhibition of growth at 10 µM: 74%
[10]
  inhibition of growth at 10 µM: 38%
A498 [11]
  inhibition of growth at 10 µM: 51%
NCI-H23
  inhibition of growth at 10 µM: 27%
[12]
  inhibition of growth at 10 µM: 41%
SK-MEL-28
  inhibition of growth at 10 µM: 11%
NCI-H226 [13]
  inhibition of growth at 10 µM: 53%
[14]
  inhibition of growth at 10 µM: 1%

## COc1cccc(Nc2nccc(Nc3ccc4[nH]ncc4c3)n2)c1
ACHN
  inhibition of growth at 10 µM: 103%
[15]
  GI50: 1.71 µM
  LC50: 8.36 µM
  TGI: 3.78 µM
[1]
  inhibition of growth at 10 µM: 162%
[2]
  inhibition of growth at 10 µM: 140%
SK-MEL-2
  GI50: 1.62 µM
  LC50: 6.59 µM
  TGI: 3.27 µM
U-251
  GI50: 1.58 µM
  TGI: 3.18 µM
U-251; [29]
  CC50: 6.39 µM
[16]
  GI50: 1.79 µM
  TGI: 4.61 µM
[16]; [29]
  CC50: 15.2 µM
[3]
  inhibition of growth at 10 µM: 89%
NCI-H226 [17]
  GI50: 1.82 µM
  TGI: 4.46 µM
NCI-H226 [17]; [29]
  CC50: 14.8 µM
A498 [18]
  GI50: 1.65 µM
  TGI: 5.3 µM
A498 [18]; [29]
  CC50: 30.5 µM
[4]
  inhibition of growth at 10 µM: 181%
T47D
  GI50: 1.05 µM
  LC50 (concentration killing 50% of cells): 9.23 µM
  TGI: 3.12 µM
[19]
  GI50: 1.21 µM
  LC50: 7.01 µM
  TGI: 2.91 µM
[5]
  inhibition of growth at 10 µM: 74%
SK-MEL-5
  GI50: 1.22 µM
  TGI: 2.47 µM
SK-MEL-5; [29]
  CC50: 5.01 µM
[6]
  inhibition of growth at 10 µM: 169%
[7]
  inhibition of growth at 10 µM: 70%
[20]
  GI50: 1.45 µM
  TGI: 4.14 µM
[20]; [29]
  CC50: 15.3 µM
[8]
  inhibition of growth at 10 µM: 86%
[21]
  GI50: 1.34 µM
  LC50: 7.23 µM
  TGI: 3.12 µM
[9]
  inhibition of growth at 10 µM: 132%
[10]
  inhibition of growth at 10 µM: 127%
A498 [11]
  inhibition of growth at 10 µM: 87%
[22]
  GI50: 1.66 µM
  LC50 (concentration killing 50% of cells): 6.04 µM
  TGI: 3.17 µM
NCI-H23
  inhibition of growth at 10 µM: 129%
[12]
  inhibition of growth at 10 µM: 111%
SK-MEL-28
  inhibition of growth at 10 µM: 143%
MCF7
  GI50: 1.26 µM
  TGI: 3.11 µM
MCF7; [29]
  CC50: 7.53 µM
M14
  GI50: 1.35 µM
  TGI: 2.81 µM
M14; [29]
  CC50: 5.83 µM
[23]
  pIC50: 7.09
NCI-H226 [13]
  inhibition of growth at 10 µM: 117%
[24]
  GI50: 1.67 µM
  TGI: 3.71 µM
[24]; [29]
  CC50: 8.23 µM
[25]
  GI50: 0.99 µM
  TGI: 2.51 µM
[25]; [29]
  CC50: 6.33 µM
[14]
  inhibition of growth at 10 µM: 107%
[26]
  GI50: 1.42 µM
  TGI: 2.82 µM
[26]; [29]
  CC50: 5.6 µM
HT-29
  GI50: 1.52 µM
  TGI: 3.45 µM
HT-29; [29]
  CC50: 7.83 µM
[27]
  GI50: 1.53 µM
  LC50: 8.29 µM
  TGI: 3.56 µM
[28]
  GI50: 1.44 µM
  LC50: 7.07 µM
  TGI: 3.19 µM

## Clc1ccc(Nc2nccc(Nc3ccc4[nH]ncc4c3)n2)cc1
ACHN
  inhibition of growth at 10 µM: 53%
[1]
  inhibition of growth at 10 µM: 83%
[2]
  inhibition of growth at 10 µM: 82%
[3]
  inhibition of growth at 10 µM: 12%
[4]
  inhibition of growth at 10 µM: 78%
[5]
  inhibition of growth at 10 µM: 40%
[6]
  inhibition of growth at 10 µM: 67%
[7]
  inhibition of growth at 10 µM: 32%
[8]
  inhibition of growth at 10 µM: 24%
[9]
  inhibition of growth at 10 µM: 77%
[10]
  inhibition of growth at 10 µM: 60%
A498 [11]
  inhibition of growth at 10 µM: 61%
NCI-H23
  inhibition of growth at 10 µM: 54%
[12]
  inhibition of growth at 10 µM: 34%
SK-MEL-28
  inhibition of growth at 10 µM: 20%
NCI-H226 [13]
  inhibition of growth at 10 µM: 72%
[14]
  inhibition of growth at 10 µM: 6%
